# From patent US12336536B2, “Method for controlling herbicide resistant or tolerant weeds” (BASF Agro B.V., priority 2015, dated 2025)
# Key:
# [1] = test system: ryegrass (LOLMU) biotypes; test: Greenhouse test, control of resistant weed biotypes, post-emergence, ryegrass; type: in vivo, Lolium multiflorum; conditions: for Herbicidal activity: post-emergence, scale 0 to 100
# Description: The herbicidal activity of herbicide A on resistant weed biotypes was tested in comparison with certain commercial herbicides by the following greenhouse experiments:
# The culture containers used were plastic flowerpots containing loamy sand with approximately 3.0% of humus as the substrate. The seeds of the test plants were sown separately for each species. Six blackgrass (ALOMY) (10-103, 10-170, 09-591, 10-123, 11-215, 11-146) and six ryeg rass (LOLMU) (12-166, 12-143, 12-165, 12-307, 13-304, 13-313) biotypes with varying degrees of resistance towards a range of modes of action according to the HRAC (Herbicide Resistance Action Committee) classification on mode of action 2010 (see e.g http://www.hracglobal.com/pages/classificationofherbicidesiteofaction.aspx) were tested alongside two non-resistant biotypes (14-116 and 13-243), see Tables 1 and 2 below.
# For the post-emergence treatment, the test plants were first grown to a height of 3 to 15 cm, depending on the plant habit, and only then treated with the active ingredients which had been suspended or emulsified in water. For this purpose, the test plants were either sown directly and grown in the same containers, or they were first grown separately as seedlings and transplanted into the test containers a few days prior to treatment.
# Depending on the species, the plants were kept at 10-25° C. or 20-35° C. The test period extended over 2 to 4 weeks. During this time, the plants were tended, and their response to the individual treatments was evaluated.
# The racemic mixture (±)-2-exo-(2-Methylbenzyloxy)-1-methyl-4-isopropyl-7-oxabicyclo[2.2.1]heptane was used as herbicide A and formulated as emulsifiable concentrates with an active ingredient concentration of 50 g/l, 100 g/l or 750 g/l respectively.
# Flufenacet was used as a commercial concentrated solution formulation having an active ingredient concentration of 500 g/l (Cadou).
# Imazamox was used as a water dispersible granule (70% WG).
# Evaluation of the herbicidal activity was carried out using a scale from 0 to 100. 100 means complete destruction of at least the aerial moieties, and 0 means no damage, or normal course of growth. A good herbicidal activity is given at values of at least 70 and a very good herbicidal activity is given at values of at least 85.
# MATIN = test: Greenhouse test, solo and combination, post-emergence, 20 DAT; type: in vivo, Matricaria inodora
# Description: The test plants have been seeded, separately for each species, in plastic containers in sandy loamy soil containing 5% of organic matter.
# For the post-emergence treatment, the plants were first grown to the 2 leaf station (GS 12) and applied at GS 12-19 depending on the species. The herbicidal compositions were suspended or emulsified in water as distribution medium and sprayed using finely distributing nozzles.
# The plants have been cultivated due to their individual requirements at 10-25° C. and 20-35° C. The plants were irrigated due to their necessity.
# The racemic mixture (±)-2-exo-(2-Methylbenzyloxy)-1-methyl-4-isopropyl-7-oxabicyclo[2.2.1]heptane was used as herbicide A and formulated as emulsifiable concentrate having an active ingredient concentration of 750 g/l.
# Cyhalofop-butyl (herbicide B.5) was used as an emulsifiable concentrate (EC) formulation having an active ingredient concentration of 200 g/l.
# Metsulfuron-methyl (herbicide B.53) was used as a water soluble granule (SG) formulation having an active ingredient concentration of 20%.
# Bispyribac-sodium (herbicide B.23) was used as a soluble concentrate (SL) formulation having an active ingredient concentration of 408 g/l.
# Quizalofop-P-ethyl (herbicide B.217) was used as a suspension concentrate (SC) formulation having an active ingredient concentration of 106 g/l.
# In the following experiments, the herbicidal activity for the individual herbicide compounds (solo and mixture applications) was assessed 20 days after treatment (DAT).
# The evaluation for the damage on undesired weeds caused by the chemical compositions was carried out using a scale from 0 to 100%, compared to the untreated control plants. Here, 0 means no damage and 100 means complete destruction of the plants.
# The plants used in the greenhouse experiments belonged to the following species:
# E=X+Y−(X·Y/100) • where X=effect in percent using herbicide A at an application rate a; • Y=effect in percent using herbicide B at application rate b; • E=expected effect (in %) of herbicide A+herbicide B at application rates a+b.
# The value E corresponds to the effect (plant damage or injury) which is to be expected if the activity of the individual compounds is additive. If the observed effect is higher than the value E calculated according to the Colby equation, a synergistic effect is present.
# Tables 3 to 6 below relate the herbicidal activity, in greenhouse trials, of the individual actives and the combination applied at different rates and ratios, in post-emergence application at 20 days after treatment (DAT).
substance,measurement,setting,value
(±)-2-exo-(2-Methylbenzyloxy)-1-methyl-4-isopropyl-7-oxabicyclo[2.2.1]heptane [Herbicide A],Herbicidal activity,"[1]; BT 12-143, resistant HRAC group A, B, C, E, K, 125 g ai/ha",80
same,Herbicidal activity,"[1]; BT 12-143, resistant HRAC group A, B, C, E, K, 250 g ai/ha",95
same,Herbicidal activity,"[1]; BT 12-165, resistant HRAC group A, B, E, K, 125 g ai/ha",95
same,Herbicidal activity,"[1]; BT 12-165, resistant HRAC group A, B, E, K, 250 g ai/ha",100
same,Herbicidal activity,"[1]; BT 12-166, resistant HRAC group A, B, E, K, 125 g ai/ha",90
same,Herbicidal activity,"[1]; BT 12-166, resistant HRAC group A, B, E, K, 250 g ai/ha",90
same,Herbicidal activity,"[1]; BT 12-307, resistant HRAC group B, F, K, O, 125 g ai/ha",70
same,Herbicidal activity,"[1]; BT 12-307, resistant HRAC group B, F, K, O, 250 g ai/ha",90
same,Herbicidal activity,"[1]; BT 13-243, Sensitive standard, 125 g ai/ha",75
same,Herbicidal activity,"[1]; BT 13-243, Sensitive standard, 250 g ai/ha",90
same,Herbicidal activity,"[1]; BT 13-304, resistant HRAC group A, B, E, K, 125 g ai/ha",85
same,Herbicidal activity,"[1]; BT 13-304, resistant HRAC group A, B, E, K, 250 g ai/ha",95
same,Herbicidal activity,"[1]; BT 13-313, resistant HRAC group A, B, C, E, K, 125 g ai/ha",70
same,Herbicidal activity,"[1]; BT 13-313, resistant HRAC group A, B, C, E, K, 250 g ai/ha",95
same,herbicidal activity (summary in words),"[1]; post-emergence treatment, various biotypes of ryegrass (LOLMU) with varying degrees of resistance",very good herbicidal activity (a very good herbicidal activity is given at values of at least 85)
same,Herbicidal activity,MATIN; solo application 62.5 g ai/ha,0%
same,Herbicidal activity,MATIN; solo application 125 g ai/ha,0%
same,Herbicidal activity,MATIN; solo application 250 g ai/ha,0%
same,Herbicidal activity,MATIN; solo application 500 g ai/ha,25%
